# Results reported in patent US8058306B2, “Phenyl pyrrole aminoguanidine derivatives” (Action Pharma A/S, priority 2006, dated 2011).
# Several values for one entry are separate records, joined by “and”; a condition that tells them apart may be missing. Equal values may be shown once. Entries after “also recorded” stand apart in the source; their conditions may differ. Read-outs that look alike come from different tables or passages of the source.
# Test: Plasma kinetics in rat following intravenous and oral administration;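 for AUC0-∞: parameter is AUC from zero to infinity in ng·h/mL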
# Type: in vivo, Sprague Dawley rats
# Method: This study determined the intravenous pharmacokinetics and oral bioavailability of compound 1 of the invention (see FIG. 1A, structure no. 1), compound 2 of the invention (see FIG. 1D, structure no. 19) and compound 3 of the invention (see FIG. 1I, structure no. 53) following administration to Sprague Dawley rats at a dose level of 10 mg/kg.
# Six groups of 3 male rats received either a single intravenous or single oral administration of compound 1, 2 or 3 of the invention at a dose level of 10 mg/kg. Blood samples were obtained at various times after dosing. Plasma samples were analysed for unchanged test item using a suitable LC-MS/MS method. Pharmacokinetic parameters were estimated from individual plasma concentrations.
# Eighteen male rats each received either a single intravenous or a single oral administration of either compound 1, 2 or 3 at a dose level of 10 mg/kg. The formulation was orally administered to each animal by gastric gavage and intravenously administered to each animal via a tail vein. The dose was administered at a dose volume of 5 mL/kg. The formulations were administered to each animal according to the details in the following table:
# Blood samples (ca 0.3 mL) were removed from the femoral vein of each animal into tubes containing lithium heparin as anticoagulant.
# Blood samples were collected from 3 rats at the following times after dose administration: • 3, 6, 15, 45 min and 1.5, 2.5, 4, 6, 8, 24 h post dose. Oral Administration
# Blood samples were collected from 3 rats at the following times after dose administration: • 5, 15, 45 min and 1.5, 2.5, 4, 6, 8, 24 h post dose. Processing of Blood Samples
# Pharmacokinetic parameters of compound 1, 2 and 3 were derived by non-compartmental analysis using WinNonLin Pro version 5.0.1 (Pharsight 2005). The following parameters were derived, where appropriate, from the individual plasma concentration versus time profiles:
# • F % The absolute oral bioavailability calculated as [AUC0-t (oral)*Dose(iv)/AUC0-t (iv)*Dose (oral)]*100 based on mean values derived after oral and intravenous administration Consideration was given to the estimation of λz and corresponding t1/2 values. Three or more points are required within the terminal phase for λz and t1/2 to be estimated. The following additional variables were tabulated to aid identification of potentially unreliable estimates of t1/2 and AUC:
# Pharmacokinetic parameters were reported as geometric mean except Tmax which was reported as the median. Geometric coefficient of variation was calculated as: […]
# Actual sampling times were used for all calculations of pharmacokinetic parameters. Plasma concentrations that were below the limit of quantification were taken as zero for the pharmacokinetic analysis.
# [1] = intravenous 10 mg/kg, male rats, individual animals, acetate, 10 mg/kg
# [2] = male, Sprague Dawley, rat, plasma, iv, 10 mg/kg, single intravenous 10 mg/kg, male rats, individual animals, read-out: Sample Concentration in plasma
# [3] = male, Sprague Dawley, rat, plasma, iv, 10 mg/kg, single intravenous 10 mg/kg, male rats, mean of 3, read-out: Mean Concentration in plasma
smiles,measurement,setting,value
"N=C(N)NN=CC=Cc1cccn1-c1ccc(Cl)cc1 [Compound 1, [1-(4-chlorophenyl)-1H-pyrrol-2-yl-allylideneamino]guanidinium acetate]",bioavailability,"Sprague Dawley, rat, plasma, 10 mg/kg oral vs intravenous, male rats, from mean AUC0-t, read-out: Mean absolute oral bioavailability",34.8%
same,"Between-animal variability in systemic exposure, coefficient of variation (CV) of AUC0-t","intravenous 10 mg/kg, male rats",less than 20%
same,AUC0-∞,[1],3755 ng·h/mL and 3394 ng·h/mL
same,AUC(0-t),[1],3662 ng·h/mL and 3262 ng·h/mL
same,C0,[1],5834 ng/mL and 2729 ng/mL
same,CL,[1],45.15 mL/min/kg and 49.85 mL/min/kg
same,MRT,[1],5.76 h
same,Vss,[1],15.606 L/kg and 19.225 L/kg
same,t1/2,[1],4.87 h and 5.44 h
same,Systemic clearance (in words),"intravenous 10 mg/kg, rats",moderate
same,volume of distribution compared with total body water (in words),"intravenous 10 mg/kg, rats, total body water 668 mL/kg, acetate, 10 mg/kg",exceeded the total body water; also recorded: markedly greater than that of the total body water
same,systemic plasma clearance (CL) as share of hepatic blood flow in rats,"intravenous 10 mg/kg, hepatic blood flow 3312 mL/h/kg",approximately 82%
same,AUC(0-inf),"male, Sprague Dawley, rat, plasma, iv, 10 mg/kg, intravenous 10 mg/kg, male rats, Arithmetic Mean",3780 ng·h/mL
same,AUC(0-t),"male, Sprague Dawley, rat, plasma, iv, 10 mg/kg, intravenous 10 mg/kg, male rats, Arithmetic Mean, read-out: AUC0-t",3600 ng·h/mL
same,C0,"male, Sprague Dawley, rat, plasma, iv, 10 mg/kg, intravenous 10 mg/kg, male rats, Arithmetic Mean, read-out: C0",4210 ng/mL
same,clearance,"male, Sprague Dawley, rat, plasma, iv, 10 mg/kg, intravenous 10 mg/kg, male rats, Arithmetic Mean, read-out: CL (converted)",45.3 mL/min/kg
same,MRT,"male, Sprague Dawley, rat, plasma, iv, 10 mg/kg, intravenous 10 mg/kg, male rats, Arithmetic Mean, read-out: MRT",6.5 h
same,Vd,"male, Sprague Dawley, rat, plasma, iv, 10 mg/kg, intravenous 10 mg/kg, male rats, Arithmetic Mean, read-out: Vss",17.6 L/kg
same,half-life,"male, Sprague Dawley, rat, plasma, iv, 10 mg/kg, intravenous 10 mg/kg, male rats, Arithmetic Mean, read-out: t1/2 (converted)",5.77 h
same,AUC(0-inf),"male, Sprague Dawley, rat, plasma, iv, 10 mg/kg, intravenous 10 mg/kg, male rats, Geometric mean",3760 ng·h/mL
same,AUC(0-t),"male, Sprague Dawley, rat, plasma, iv, 10 mg/kg, intravenous 10 mg/kg, male rats, Geometric mean, read-out: AUC0-t",3590 ng·h/mL
same,C0,"male, Sprague Dawley, rat, plasma, iv, 10 mg/kg, intravenous 10 mg/kg, male rats, Geometric mean, read-out: C0",4020 ng/mL
same,clearance,"male, Sprague Dawley, rat, plasma, iv, 10 mg/kg, intravenous 10 mg/kg, male rats, Geometric mean, read-out: CL (systemic plasma clearance) (converted)",45.1 mL/min/kg
same,MRT,"male, Sprague Dawley, rat, plasma, iv, 10 mg/kg, intravenous 10 mg/kg, male rats, Geometric mean, read-out: MRT",6.47 h
same,Vd,"male, Sprague Dawley, rat, plasma, iv, 10 mg/kg, intravenous 10 mg/kg, male rats, Geometric mean, read-out: Vss (mean apparent volume of distribution)",17.5 L/kg
same,half-life,"male, Sprague Dawley, rat, plasma, iv, 10 mg/kg, intravenous 10 mg/kg, male rats, Geometric mean, read-out: t1/2 (mean apparent terminal half-life) (converted)",5.7 h
same,AUC(0-inf),"male, Sprague Dawley, rat, plasma, iv, 10 mg/kg, intravenous 10 mg/kg, male rats, Median",3760 ng·h/mL
same,AUC(0-t),"male, Sprague Dawley, rat, plasma, iv, 10 mg/kg, intravenous 10 mg/kg, male rats, Median, read-out: AUC0-t",3660 ng·h/mL
same,C0,"male, Sprague Dawley, rat, plasma, iv, 10 mg/kg, intravenous 10 mg/kg, male rats, Median, read-out: C0",4070 ng/mL
same,clearance,"male, Sprague Dawley, rat, plasma, iv, 10 mg/kg, intravenous 10 mg/kg, male rats, Median, read-out: CL (converted)",45.1 mL/min/kg
same,MRT,"male, Sprague Dawley, rat, plasma, iv, 10 mg/kg, intravenous 10 mg/kg, male rats, Median, read-out: MRT",6.43 h
same,Vd,"male, Sprague Dawley, rat, plasma, iv, 10 mg/kg, intravenous 10 mg/kg, male rats, Median, read-out: Vss",17.9 L/kg
same,half-life,"male, Sprague Dawley, rat, plasma, iv, 10 mg/kg, intravenous 10 mg/kg, male rats, Median, read-out: t1/2 (converted)",5.44 h
same,AUC(0-inf),"male, Sprague Dawley, rat, plasma, iv, 10 mg/kg, intravenous 10 mg/kg, male rats, individual animals",4180 ng·h/mL
same,AUC(0-t),"male, Sprague Dawley, rat, plasma, iv, 10 mg/kg, intravenous 10 mg/kg, male rats, individual animals, read-out: AUC0-t",3870 ng·h/mL
same,clearance,"male, Sprague Dawley, rat, plasma, iv, 10 mg/kg, intravenous 10 mg/kg, male rats, individual animals, read-out: CL (converted)",40.9 mL/min/kg
same,MRT,"male, Sprague Dawley, rat, plasma, iv, 10 mg/kg, intravenous 10 mg/kg, male rats, individual animals, read-out: MRT",7.31 h
same,Vd,"male, Sprague Dawley, rat, plasma, iv, 10 mg/kg, intravenous 10 mg/kg, male rats, individual animals, read-out: Vss",17.9 L/kg
same,half-life,"male, Sprague Dawley, rat, plasma, iv, 10 mg/kg, intravenous 10 mg/kg, male rats, individual animals, read-out: t1/2 (converted)",7 h
same,concentration at 0.05 h,"male, Sprague Dawley, rat, plasma, iv, 10 mg/kg, single intravenous 10 mg/kg, male rats, 0.05 h (3 min), mean of 3, read-out: Mean Concentration in plasma",2250 ng/mL
same,concentration at 0.1 h,[2],941 ng/mL
same,concentration at 0.1 h,[3],1120 ng/mL
same,concentration at 0.25 h,[2],589 ng/mL
same,concentration at 0.25 h,[3],705 ng/mL
same,concentration at 0.75 h,[2],441 ng/mL
same,concentration at 0.75 h,[3],392 ng/mL
same,concentration at 1.5 h,[2],347 ng/mL
same,concentration at 1.5 h,[3],308 ng/mL
same,concentration at 2.5 h,[2],239 ng/mL
same,concentration at 2.5 h,[3],233 ng/mL
same,concentration at 4 h,[2],317 ng/mL
same,concentration at 4 h,[3],254 ng/mL
same,concentration at 6 h,[2],140 ng/mL
same,concentration at 6 h,[3],160 ng/mL
same,concentration at 8 h,"male, Sprague Dawley, rat, plasma, iv, 10 mg/kg, single intravenous 10 mg/kg, male rats, 8 h, mean, read-out: Mean Concentration in plasma",97 ng/mL
same,concentration at 24 h,"male, Sprague Dawley, rat, plasma, iv, 10 mg/kg, single intravenous 10 mg/kg, male rats, 24 h, mean, read-out: Mean Concentration in plasma",20.2 ng/mL
same,AUC(0-t),"male, Sprague Dawley, rat, plasma, po, 10 mg/kg, oral 10 mg/kg, male rats, Arithmetic Mean, read-out: AUC0-t",1350 ng·h/mL
